According to patent US4293560A, “Talampicillin 2-methoxyphenoxyacetate and pharmaceutical compositions containing it” (priority 1980, dated 1981):
Read-outs that look alike come from different tables or passages of the source.

Legend:
[1] = rat, in vivo, po
Protocol: The sodium ampicillin and the talampicillin hydrochloride have been administered in aqueous solution; the other talampicillin salts have been administered in aqueous suspension.
At 0.5, 1,2,4 and 6 hours after the administration the animals were sacrified and their blood was taken from the portal vein.

[2] = in vivo; settings: rat, po, 100 mg/kg
[3] = cited from earlier work
[4] = white powder

**Q.** With `CC1(C)S[C@@H]2[C@H](NC(=O)[C@H](N)c3ccccc3)C(=O)N2[C@H]1C(=O)OC1OC(=O)c2ccccc21` (some centres unmarked) [talampicillin napsylate, naphthalene 2-sulphonate of talampicillin] as the compound, how does the “mcg/ml ampicillin, average ± standard error” value ([1]; 30 min) read?
**A.** The value was 14.8 ± 3.4 µg/mL.

**Q.** And the “mcg/ml ampicillin, average ± standard error” value ([1]; 60 min)?
**A.** Its value is 6.1 ± 1.8 µg/mL.

**Q.** And the “mcg/ml ampicillin, average ± standard error” value ([1]; 120 min)?
**A.** Its value is 2.7 ± 0.2 µg/mL.

**Q.** And the “mcg/ml ampicillin, average ± standard error” value ([1]; 240 min)?
**A.** The value was 1.9 ± 0.6 µg/mL.

**Q.** And the “mcg/ml ampicillin, average ± standard error” value ([1]; 360 min)?
**A.** The value was 1.1 ± 0.1 µg/mL.

**Q.** For `CC1(C)S[C@@H]2[C@H](NC(=O)[C@H](N)c3ccccc3)C(=O)N2[C@H]1C(=O)O` [sodium ampicillin, 6-[D(-)-α-aminophenylacetamido]penicillanic acid], which AUC at 6 h [2] is on record?
**A.** The AUC at 6 h was 10700 ng·h/mL.

**Q.** What about the concentration at 0.5 h [2] of the same compound?
**A.** Its concentration at 0.5 h is 6400 ng/mL.

**Q.** What about the concentration at 1 h [2] of the same compound?
**A.** Its concentration at 1 h is 4600 ng/mL.

**Q.** What about the concentration at 2 h [2] of the same compound?
**A.** Its concentration at 2 h is 1400 ng/mL.

**Q.** And the concentration at 4 h [2]?
**A.** Its concentration at 4 h is 800 ng/mL.

**Q.** And the concentration at 6 h [2]?
**A.** The concentration at 6 h was 200 ng/mL.

**Q.** For `CC1(C)S[C@@H]2[C@H](NC(=O)[C@H](N)c3ccccc3)C(=O)N2[C@H]1C(=O)OC1OC(=O)c2ccccc21` (single isomer, unassigned) [talampicillin, phtahlidyl ester of the 6-[D(-)-α-aminophenylacetamido]penicillanic acid], which “blood levels of the parent ampicillin (in words)” value ([3]; in vivo, po) is on record?
**A.** The value was “very high blood levels of the parent ampicillin”.

**Q.** What about the “absorption (in words)” value ([3]; oral route, animals and man) of the same compound?
**A.** The value was “well absorbed when administered by oral route in animals and in man”.

**Q.** What does the source list for `CC1(C)S[C@@H]2[C@H](NC(=O)[C@H](N)c3ccccc3)C(=O)N2[C@H]1C(=O)OC1OC(=O)c2ccccc21` (single isomer, unassigned) [talampicillin 2-methoxyphenoxyacetate, 2-methoxyphenoxyacetate of the phthalidyl ester of the 6-[D(-)-α-aminophenylacetamido]penicillanic acid]?
**A.** SBC [1]: 30; mcg/ml ampicillin, average ± standard error ([1]; 30 min): 23.4 ± 2.4 µg/mL; mcg/ml ampicillin, average ± standard error ([1]; 60 min): 10.2 ± 0.9 µg/mL; mcg/ml ampicillin, average ± standard error ([1]; 120 min): 3.8 ± 1.1 µg/mL; mcg/ml ampicillin, average ± standard error ([1]; 240 min): 1.7 ± 0.4 µg/mL; mcg/ml ampicillin, average ± standard error ([1]; 360 min): 1.6 ± 1 µg/mL; storage [4]: do not show any problem of storage
